Experimental data reported in publication PMC12564639, “Discovery of a Novel Anticoagulant Cystine Knot Peptide from Spider Venom Gland Transcriptome” (International Journal of Molecular Sciences, 2025).
Peptide text beside a SMILES is read from it.

Assays:
[1] = target: T1, Human Activated Protein C (APC-1.0) (Homo sapiens, UniProt P04070); assay: APC activity by chromogenic substrate assay; assay type: biochemical; settings: APC 0.7145 μM, S-2366 402.1 μM, PBS, 37 °C, pre-incubation 10 min, n = 3
T1 construct: purchased Enzyme Research Laboratories, Inc., South Bend, IN, USA APC-1.0
Excerpt: Human Activated Protein C (APC-1.0) was purchased from Enzyme Research Laboratories, Inc., South Bend, IN, USA. […] Activated Partial Thromboplastin Time (APTT) Test Kit (TC0306) was bought from Senkey Biotechnology Co., Ltd., Kunming, China. Prothrombin Time (PT) Test Kit (GMS10176) was purchased from GENMED Scientifics Inc., Shanghai, China. Streptavidin (SA) Biosensors (18-5019) were obtained from Sartorius AG, Göttingen, Lower Saxony, Germany. PBS (21-040-CVC) was bought from Corning Incorporated, Corning, NY, USA. Tween-20 (BS361B) was purchased from Biosharp Life Sciences, Hefei, Anhui, China. Trifluoroacetic acid (TFA, T818778-500ml, CAS: 76-05-1) and CaCl2 (C805225) were obtained from Macklin Biochemical Co., Ltd., Shanghai, China. L-oxidized glutathione (GSSG, V900363), Rose Bengal Dye (content 95%, CAS: 632-69-9, 330000-5G), and HEPES (V900477-500G) were purchased from Sigma-Aldrich LLC, St. Louis, MO, USA (Shanghai branch: Sigma-Aldrich Shanghai Trading Co., Ltd., Shanghai, China). […]
APC (0.7145 μM) was pre-incubated with varying concentrations of GC38 (0.1, 1 and 10 μM) in PBS at 37 °C for 10 min. […] Kinetic measurements were performed at 37 °C using a Multi-Mode Microplate Reader (BioTek Synergy™ H1, Winooski, VT, USA) with absorbance at 405 nm recorded every 10 s for 30 min. […]

[2] = system: cortical photothrombotic stroke in mice; assay: Rose Bengal-mediated cortical photothrombotic stroke (CPS) model; assay type: in vivo, mouse; settings: n = 6; for blood flow reduction (cerebral): laser speckle perfusion, vehicle 40.1%
Description: (§1) The C57BL/6J mice (male, 6–8 weeks old) were purchased from Beijing Vital River Laboratory Animal Technology Co., Ltd. (Beijing, China). All animal studies were performed under the approval of the Ethics Committee of the Laboratory Animal Welfare of the Kunming Institute of Zoology, Chinese Academy of Sciences (IACUC-RE-2025-03-010).
The Rose Bengal-mediated CPS model was employed to induce focal cerebral ischemia in mice. Rose Bengal (50 mg/kg), a photosensitive dye, was administered intravenously 1 h before the surgery, followed by an intravenous injection of PBS (vehicle control), GC38 (2 or 4 mg/kg), and heparin sodium (1000 U/kg) 10 min before the surgery. Briefly, mice were anesthetized and secured in a stereotaxic frame. A midline scalp incision was made to expose the skull, followed by illumination with a 562 nm yellow-green laser (R-LG561-100-A5, RWD Life Science, Shenzhen, China) for 7 min. This process generated reactive oxygen species, resulting in endothelial damage and subsequent thrombus formation. Post-illumination, the scalp was sutured, and mice were placed on a warming pad for recovery. Cerebral ischemia severity was evaluated using the LSP imaging system, and the 15-day survival rates after ischemia induction were recorded.

[3] = system: FeCl3-induced carotid artery thrombosis in mice; assay: FeCl3-induced carotid artery thrombosis model; assay type: in vivo, C57BL/6J mice; settings: for blood flow reduction, carotid artery: 10 min before FeCl3, n = 6
Description: as §1
Male C57BL/6J mice (6–8 weeks old, n = 6 per group) were randomly assigned to groups receiving intravenous injections of PBS (vehicle control), GC38 (2 or 4 mg/kg in PBS), and heparin sodium (1000 U/kg), respectively. Ten minutes post-injection, mice were anesthetized with 2% isoflurane inhalation. The right carotid artery was surgically exposed, and endothelial injury was induced by applying a 1 × 2 mm filter paper saturated with 10% (w/v) FeCl3 solution for 30 s. Real-time blood flow was monitored using a real-time laser speckle perfusion (LSP) imaging system (RWD Life Science, Shenzhen, China) with SIM BFI software (SIM BFI HR Pro, Simopto, Beijing, China). Thrombosis progression and vessel occlusion were evaluated using real-time ultrasound imaging of the region of interest at baseline (before injury), 5, and 10 min (post-injury). The perfusion unit was recorded to quantify the blood flow. Vessel occlusion was defined as a sustained reduction in perfusion units to ≤10% of baseline for at least 3 min. Data are presented as mean ± SEM.

T1 sequence (P04070 212-461 limits assumed): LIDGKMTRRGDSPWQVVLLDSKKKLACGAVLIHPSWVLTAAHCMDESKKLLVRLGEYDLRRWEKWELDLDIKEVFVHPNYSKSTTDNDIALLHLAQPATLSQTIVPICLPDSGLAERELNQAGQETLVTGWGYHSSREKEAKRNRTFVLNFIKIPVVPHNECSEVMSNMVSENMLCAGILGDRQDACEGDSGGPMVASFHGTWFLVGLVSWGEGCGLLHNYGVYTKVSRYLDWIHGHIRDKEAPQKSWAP
T1 sequence (P04070 43-197 limits assumed): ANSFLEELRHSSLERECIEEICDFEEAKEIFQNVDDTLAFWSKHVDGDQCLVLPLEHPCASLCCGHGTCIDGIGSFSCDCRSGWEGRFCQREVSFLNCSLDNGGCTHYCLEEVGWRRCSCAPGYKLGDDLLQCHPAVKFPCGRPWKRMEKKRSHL

Which results are given for `CSCC[C@@H]1NC(=O)[C@H](CC(N)=O)NC(=O)CNC(=O)CNC(=O)[C@H](Cc2c[nH]cn2)NC(=O)[C@H](CCCNC(=N)N)NC(=O)CNC(=O)[C@@H]2CSSC[C@@H]3NC(=O)[C@H](CCCNC(=N)N)NC(=O)[C@H](C)NC(=O)CNC(=O)[C@H](CCCCN)NC(=O)CNC(=O)[C@H](CO)NC(=O)[C@@H](NC(=O)CN)CSSC[C@H](NC(=O)[C@H](CSSC[C@@H](C(=O)N[C@@H](CCC(=O)O)C(=O)N[C@@H](Cc4c[nH]c5ccccc45)C(=O)N[C@@H](CC(N)=O)C(=O)N[C@@H](Cc4c[nH]c5ccccc45)C(=O)N[C@@H](CCCCN)C(=O)N[C@H](C(=O)NCC(=O)O)[C@@H](C)O)NC(=O)[C@H](CO)NC(=O)[C@H](CCCCN)NC(=O)[C@H](Cc4ccc(O)cc4)NC1=O)NC(=O)[C@H](CCCCN)NC(=O)[C@H](CO)NC(=O)[C@@H]1CCCN1C(=O)[C@H](C)NC3=O)C(=O)N[C@@H](CO)C(=O)NCC(=O)N[C@@H](CC(C)C)C(=O)N[C@@H](CO)C(=O)N2` [GC38] (HELM PEPTIDE1{G.C.S.G.K.G.A.R.C.A.P.S.K.C.C.S.G.L.S.C.G.R.H.G.G.N.M.Y.K.S.C.E.W.N.W.K.T.G}$PEPTIDE1,PEPTIDE1,2:R3-15:R3|PEPTIDE1,PEPTIDE1,9:R3-20:R3|PEPTIDE1,PEPTIDE1,14:R3-31:R3$$$V2.0)?
activity of APC at maximum catalytic velocity (Vmax) ([1]; GC38 10 μM, 405 nm, versus PBS control, mean): 171%; APC activity, concentration dependence ([1]; GC38 0.1-10 μM, absorbance 405 nm every 10 s for 30 min): enhanced APC activity in a concentration-dependent manner; blood flow reduction (cerebral) ([2]; GC38 2 mg/kg i.v. 10 min before surgery): 22.0%; blood flow reduction (cerebral) ([2]; GC38 4 mg/kg i.v. 10 min before surgery): 6.4%; microvascular occlusion and ischemic lesions ([2]; GC38 4 mg/kg i.v.): delayed microvascular occlusion and alleviated the formation of ischemic lesions; 15-day survival rate ([2]; versus untreated group): improved the 15-day survival rate of mice; FeCl3-induced vascular occlusion ([3]; 2 and 4 mg/kg i.v., Doppler flowmetry / laser speckle perfusion): alleviated FeCl3-induced vascular occlusion in mice; blood flow reduction, carotid artery ([3]; GC38 2 mg/kg i.v., 5 min after 10% FeCl3): 20.6%; blood flow reduction, carotid artery ([3]; GC38 2 mg/kg i.v., 10 min after 10% FeCl3): 44.0%; blood flow reduction, carotid artery ([3]; GC38 4 mg/kg i.v., 5 min after 10% FeCl3): 11.8%; blood flow reduction, carotid artery ([3]; GC38 4 mg/kg i.v., 10 min after 10% FeCl3): 29.4%
